# In patent publication US5560912A, “Method for inhibiting growth of helicobacter pylori” (Technion Research & Development Foundation Ltd., priority 1994, dated 1996):
# Legend:
# [1] = test system: Helicobacter pylori; assay: Filter paper disc diffusion method, zone of inhibition; assay type: cell-based
# Description: The inhibition effect was determined in-vitro, using the "Filter paper disc diffusion method" as described by Laura L. Zaika, (journal of Food Safety 9,1988,p.97-118). According to the method used, an extract of the plant was deposited on a small filter paper disc having a diameter of 0.5 cm and then placed in the center of a Petri plate containing agar growth medium inoculated with the test microorganism. The plate was incubated under microaerophilic conditions in anaerobic jars at 37° C. for 3 to 4 days and observed for microbial growth. If the extract of Cinnamon exerts antimicrobial activity, the microorganism will not grow in an area surrounding the filter paper disc. This clear area, defined as "zone of inhibition" was measured and recorded in mm. This method is well-known also for determining the activity of an antibiotic compound, by measuring the zone of inhibition arround a disc containing a sample of the antibacterial compound to be tested.
# The assays used for the bacterial growth inhibition were as follows:
# Two organic Cinnamon extracts, methylene chloride and ethanol in concentrations of 0.05 mg and 0.1 mg respectively were spotted on standard discs and placed on Egg Yolk Emulsion agar plate center which was previously layered with 0,1 ml of a bacterial suspension having a concentration of 10^7 CFU ml.
# After the required incubation, the inhibition zone was recorded. In FIG. 2,there are presented the sensitivity of Helicobacter pylori, as determined by the inhibition diameter, using two organic extracts of Cinnamon (0,05 mg and 0.1 mg dry weight) compared with antibiotics: ampicillin (0.0. mg), tetracycline (0.03 mg), erythromycine (0.015 mg) nalidixic acid (0.03 mg), cotrimoxazole (0.025 mg). In these tests, two isolates of H.pylori were used.
# The tests were carried out on Egg Yolk Emulsion agar plate, the Cinnamon concentrations on disk were in the range of […].
# [2] = test system: Helicobacter pylori; assay: as above; assay type: cell-based; conditions: read-out: Inhibition zone
# [3] = Helicobacter pylori, read-out: Inhibition zone
Compound,"inhibition of H. pylori growth, in words [1]",zone of inhibition at 2000 µg/disc [2],also measured
COc1ccccc1/C=C/C=O,beneficial effect on the inhibition but with a higher concentration,–,"Inhibition zone ([1]; 0.2 mg/disk, * = substantial complete inhibition): 44 mm; Inhibition zone ([1]; 0.4 mg/disk): 57 mm; Inhibition zone ([1]; 0.6 mg/disk): 68 mm"
CC1=CCC2CC1C2(C)C (stereo not drawn) [Alpha-pinene],–,18 mm,–
CC1=CC=C(C(C)C)CC1 [Alpha-terpinene],only a lower inhibition zone,17 mm,–
O=C(OCc1ccccc1)c1ccccc1 [Benzyl-benzoate],–,17 mm,–
O=CC=Cc1ccccc1 [Cinnamaldehyde],substantial complete inhibition,–,"zone of inhibition at 50 µg/disc [1, 3]: 45 mm; zone of inhibition at 100 µg/disc [1, 3]: 60 mm; zone of inhibition at 200 µg/disc [1, 3]: > 90 mm"
OC/C=C/c1ccccc1 [Cinnamic alcohol],only a lower inhibition zone,–,"zone of inhibition at 200 µg/disc [1, 3]: 12 mm; zone of inhibition at 400 µg/disc ([1]; Helicobacter pylori, 0.4 mg/disk): 20 mm"
CC1=CCC(O)(C(C)C)CC1 (stereo not shown) [Terpinen-4-ol],–,22 mm,–
